Data as given in ChEMBL document CHEMBL1201862, “PubChem BioAssay data set” (2004).
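Cells were grown in 96-well plates and exposed to each compound for 48 hours at five concentrations; endpoints were interpolated linearly between bracketing concentrations, or set to the highest concentration if not reached. The concentration for 50% growth inhibition is given as GI50.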 Calls of active or inactive are those of the source. No stated cut-off is given here; in the data, active = GI50 up to about 1.1 µM and inactive = higher.

Assays:
Test in all cases: NCI-60 cell line screen, 48 h
DU-145 = test system: DU-145
NCI-H226 = test system: NCI-H226
SK-MEL-2 = test system: SK-MEL-2
SK-OV-3 = test system: SK-OV-3
LOX IMVI = test system: LOX IMVI
UACC-62 = test system: UACC-62
RXF 393 = test system: RXF 393
HOP-62 = test system: HOP-62
MOLT-4 = test system: MOLT-4
PC-3 = test system: PC-3
SK-MEL-5 = test system: SK-MEL-5
HL-60 = test system: HL-60
T47D = test system: T47D
OVCAR-4 = test system: OVCAR-4
MCF7 = test system: MCF7
OVCAR-8 = test system: OVCAR-8
ACHN = test system: ACHN
UACC-257 = test system: UACC-257
NCI-H23 = test system: NCI-H23
786-0 = test system: 786-0

Measured: GI50

CC(C)(C)OC(=O)NC(CS(=O)(=O)O)C(=O)O (stereo not given)
inactive: DU-145 > 100 µM | NCI-H226 > 100 µM | SK-MEL-2 > 100 µM | SK-OV-3 > 100 µM | LOX IMVI > 100 µM | UACC-62 > 100 µM | RXF 393 > 100 µM | HOP-62 > 100 µM | MOLT-4 > 100 µM | PC-3 > 100 µM | SK-MEL-5 > 100 µM | HL-60 > 100 µM | T47D > 100 µM | OVCAR-4 > 100 µM | MCF7 > 100 µM | OVCAR-8 > 100 µM | ACHN > 100 µM | UACC-257 > 100 µM | NCI-H23 > 100 µM | 786-0 > 100 µM

COc1cc([N+](=O)[O-])cc2c1NC(=O)C2(C)SC (stereo not given)
inactive: DU-145 > 100 µM | NCI-H226 > 100 µM | SK-MEL-2 60.7 µM | SK-OV-3 25.4 µM | LOX IMVI 88.1 µM | UACC-62 96.8 µM | RXF 393 86.7 µM | HOP-62 > 100 µM | MOLT-4 31.6 µM | PC-3 > 100 µM | SK-MEL-5 > 100 µM | HL-60 18.3 µM | T47D 66.8 µM | OVCAR-4 90.2 µM | MCF7 79.4 µM | OVCAR-8 > 100 µM | ACHN > 100 µM | UACC-257 > 100 µM | NCI-H23 > 100 µM | 786-0 > 100 µM

OC(C1=C/C(=C\c2ccncc2)c2ccccc21)c1ccncc1 (stereo not given)
inactive: DU-145 17 µM | NCI-H226 13.6 µM | SK-MEL-2 14.3 µM | SK-OV-3 13.8 µM | LOX IMVI 12.1 µM | UACC-62 9.16 µM | RXF 393 14 µM | HOP-62 10.2 µM | MOLT-4 5.71 µM | PC-3 10.8 µM | SK-MEL-5 3.21 µM | HL-60 1.66 µM | T47D 4.38 µM | OVCAR-4 12.4 µM | MCF7 9.86 µM | OVCAR-8 22.2 µM | ACHN 14.8 µM | UACC-257 6.34 µM | NCI-H23 12.4 µM | 786-0 12.9 µM

CC(C)(C)OCC1NC(=O)[C@@H]2Cc3c([nH]c4ccccc34)C(C3CCCCC3)N2C1=O (stereo not given in full)
inactive: DU-145 34.8 µM | NCI-H226 22 µM | SK-MEL-2 20.7 µM | SK-OV-3 51.4 µM | LOX IMVI 16.9 µM | UACC-62 14.9 µM | RXF 393 15.6 µM | HOP-62 16.1 µM | MOLT-4 16.5 µM | PC-3 18.8 µM | SK-MEL-5 15.2 µM | HL-60 23 µM | T47D 20.6 µM | OVCAR-4 23.9 µM | MCF7 31.6 µM | OVCAR-8 29.9 µM | ACHN 27 µM | UACC-257 18.4 µM | NCI-H23 21.8 µM | 786-0 22.5 µM

OCCOCn1nncc1Cn1ncc2c(O)ncnc21
inactive: DU-145 43.7 µM | NCI-H226 > 100 µM | SK-MEL-2 54.1 µM | SK-OV-3 71.6 µM | LOX IMVI 74.3 µM | UACC-62 > 100 µM | RXF 393 > 100 µM | HOP-62 > 100 µM | MOLT-4 40 µM | PC-3 55.1 µM | SK-MEL-5 47.5 µM | HL-60 23.9 µM | T47D > 100 µM | OVCAR-4 > 100 µM | MCF7 48.8 µM | OVCAR-8 > 100 µM | ACHN > 100 µM | UACC-257 > 100 µM | NCI-H23 > 100 µM | 786-0 52 µM

Cc1c2c(OCCN3CCCCC3)nn(C)c(=O)c2c(C)n1-c1ccccc1
inactive: DU-145 52.7 µM | NCI-H226 38 µM | SK-MEL-2 17 µM | SK-OV-3 56.1 µM | LOX IMVI 21.8 µM | UACC-62 25.8 µM | RXF 393 33.4 µM | HOP-62 > 100 µM | MOLT-4 29.5 µM | PC-3 30.1 µM | SK-MEL-5 16.7 µM | HL-60 31 µM | T47D 41.2 µM | OVCAR-4 63.8 µM | MCF7 25.5 µM | OVCAR-8 74.8 µM | ACHN 28.5 µM | UACC-257 22.1 µM | NCI-H23 28.1 µM | 786-0 18.8 µM

COc1ccc(C2NC(=S)Nc3c2c(=O)oc2c3ccc3ccccc32)cc1 (stereo not given)
inactive: DU-145 > 100 µM | NCI-H226 32.2 µM | SK-MEL-2 44.1 µM | SK-OV-3 > 100 µM | LOX IMVI > 100 µM | UACC-62 45.7 µM | RXF 393 > 100 µM | HOP-62 87.9 µM | MOLT-4 73.5 µM | PC-3 54.7 µM | SK-MEL-5 > 100 µM | HL-60 92.3 µM | T47D 50.6 µM | OVCAR-4 69.2 µM | MCF7 > 100 µM | OVCAR-8 92.3 µM | ACHN 67.6 µM | UACC-257 > 100 µM | NCI-H23 67.3 µM | 786-0 80.7 µM

CC1(C)CCCC2(C)C3=C(CCC12)C(=O)OC3 (stereo not given)
inactive: DU-145 > 100 µM | NCI-H226 > 100 µM | SK-MEL-2 > 100 µM | SK-OV-3 > 100 µM | LOX IMVI > 100 µM | UACC-62 93.5 µM | RXF 393 62.2 µM | HOP-62 > 100 µM | MOLT-4 18.3 µM | PC-3 > 100 µM | SK-MEL-5 42.7 µM | HL-60 17.6 µM | T47D 59.2 µM | OVCAR-4 55.7 µM | MCF7 > 100 µM | OVCAR-8 > 100 µM | ACHN > 100 µM | UACC-257 > 100 µM | NCI-H23 > 100 µM | 786-0 > 100 µM

O=[N+]([O-])c1ccc(C2NC(=S)NC3c4cc([N+](=O)[O-])ccc4CCCC23)cc1 (stereo not given)
inactive: DU-145 33 µM | NCI-H226 53.5 µM | SK-MEL-2 > 100 µM | SK-OV-3 > 100 µM | LOX IMVI > 100 µM | UACC-62 31.2 µM | RXF 393 18.2 µM | HOP-62 57.4 µM | MOLT-4 > 100 µM | PC-3 55.7 µM | SK-MEL-5 > 100 µM | HL-60 > 100 µM | T47D 35.6 µM | OVCAR-4 56.4 µM | MCF7 41.8 µM | OVCAR-8 52.2 µM | ACHN 63.4 µM | UACC-257 > 100 µM | NCI-H23 67.3 µM | 786-0 97.1 µM

Cc1cccc(Nc2cnc(N)nc2N)c1
inactive: DU-145 > 100 µM | NCI-H226 > 100 µM | SK-MEL-2 > 100 µM | SK-OV-3 > 100 µM | LOX IMVI > 100 µM | UACC-62 > 100 µM | RXF 393 98.9 µM | HOP-62 > 100 µM | MOLT-4 > 100 µM | PC-3 > 100 µM | SK-MEL-5 > 100 µM | HL-60 > 100 µM | T47D > 100 µM | OVCAR-4 > 100 µM | MCF7 > 100 µM | OVCAR-8 > 100 µM | ACHN > 100 µM | UACC-257 > 100 µM | NCI-H23 > 100 µM | 786-0 > 100 µM
